PubChem BioAssay (NCI)
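GI50: concentration for 50% inhibition of growth. TGI: total growth inhibition.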

Columns and labels:
Experiment in all cases: NCI tumour cell line growth inhibition, 384-well format
786-0 renal = test system: 786-0 renal
CCRF-CEM leukemia = test system: CCRF-CEM leukemia
HOP-92 NSCLC = test system: HOP-92 NSCLC
HS 578T breast = test system: HS 578T breast
NCI-H460 NSCLC = test system: NCI-H460 NSCLC
OVCAR-4 ovarian = test system: OVCAR-4 ovarian
PC-3 prostate = test system: PC-3 prostate
RXF 393 renal = test system: RXF 393 renal
SF-539 CNS = test system: SF-539 CNS
SNB-19 CNS = test system: SNB-19 CNS
SNB-75 CNS = test system: SNB-75 CNS
TK-10 renal = test system: TK-10 renal
UACC-62 melanoma = test system: UACC-62 melanoma

| Compound | GI50 (786-0 renal) [µM] | TGI (786-0 renal) [µM] | GI50 (CCRF-CEM leukemia) [µM] | TGI (CCRF-CEM leukemia) [µM] | GI50 (HOP-92 NSCLC) [µM] | TGI (HOP-92 NSCLC) [µM] | GI50 (HS 578T breast) [µM] | TGI (HS 578T breast) [µM] | GI50 (NCI-H460 NSCLC) [µM] | TGI (NCI-H460 NSCLC) [µM] | GI50 (OVCAR-4 ovarian) [µM] | TGI (OVCAR-4 ovarian) [µM] | GI50 (PC-3 prostate) [µM] | TGI (PC-3 prostate) [µM] | GI50 (RXF 393 renal) [µM] | TGI (RXF 393 renal) [µM] | TGI (SF-539 CNS) [µM] | GI50 (SNB-19 CNS) [µM] | TGI (SNB-19 CNS) [µM] | GI50 (SNB-75 CNS) [µM] | other results |
| --- | --- | --- | --- | --- | --- | --- | --- | --- | --- | --- | --- | --- | --- | --- | --- | --- | --- | --- | --- | --- | --- |
| NS(=O)(=O)NCCNc1nonc1C(=Nc1ccc(F)c(Br)c1)NO | 35.1 | > 100 | 17.6 | 35.3 | 29.6 | > 89.5 | 25.3 | 87.4 | 27.4 | 73 | 21.4 | 72.5 | 6.11 | > 100 | 4.11 | > 31.6 | > 100 | 42.1 | > 100 | 21.4 | TGI (SNB-75 CNS): 60.2 µM; GI50 (TK-10 renal): 28.8 µM; TGI (TK-10 renal): > 89.2 µM; GI50 (UACC-62 melanoma): 24.5 µM; TGI (UACC-62 melanoma): > 100 µM |
| CC1(N)CCN(c2cnc(-c3cccc(Cl)c3Cl)c(N)n2)CC1 | 11.1 | 24 | 17 | 31.2 | 1.02 | 8.17 | 13.4 | 27.2 | 18.1 | 33.3 | 14 | > 77.1 | 21.4 | > 60.4 | 12.2 | 25.5 | 27.7 | 11.9 | > 74.3 | 12.3 | GI50 (SF-539 CNS): 13.9 µM; TGI (SNB-75 CNS): 38.2 µM; GI50 (TK-10 renal): 8.25 µM; TGI (TK-10 renal): 25 µM; GI50 (UACC-62 melanoma): 18.7 µM; TGI (UACC-62 melanoma): 32.9 µM |
